Test results: patent US7696379B2, “Acetylene derivatives” (Novartis AG, priority 2005, dated 2010)

Key:
hmGluR5 = target: T1, hmGluR5 (Homo sapiens, UniProt P41594); assay: inhibition of agonist induced inositol phosphate turnover in hmGluR5 expressing cells; format: cell-based; conditions: read-out: IC50 concentration, inhibition of quinqualate-induced inositol phosphate turnover
T1 construct: expressed in transfected cells
Source text: This can be determined in vitro for example at recombinant human metabotropic glutamate receptors, especially PLC-coupled subtypes thereof such as mGluR5, using different procedures like, for example, measurement of the inhibition of the agonist induced elevation of intracellular Ca^2+ concentration in accordance with L. P. Daggett et al., Neuropharm. Vol. 34, pages 871-886 (1995), P. J. Flor et al., J. Neurochem. Vol. 67, pages 58-63 (1996) or by determination to what extent the agonist induced elevation of the inositol phosphate turnover is inhibited as described by T. Knoepfel et al., Eur. J. Pharmacol. Vol. 288, pages 389-392 (1994), L. P. Daggett et al., Neuropharm. Vol. 67, pages 58-63 (1996) and references cited therein. Isolation and expression of human mGluR subtypes are described in U.S. Pat. No. 5,521,297. Selected agents of the invention show IC50 values for the inhibition of the agonist (e.g. glutamate or quisqualate) induced elevation of intracellular Ca2+ concentration or the agonist (e.g. glutamate or quisqualate) induced inositol phosphate turnover, measured in recombinant cells expressing hmGluR5a of about 1 nM to about 50 μM.

[1] = system: stress-induced hyperthermia in mice; assay: stress-induced hyperthermia in mice; format: in vivo; conditions: control hyperthermia 0.82+/−0.1° C.
Procedure: A. Lecci et al., Psychopharmacol. 101, 255-261]. At doses of about 0.1 to about 30 mg/kg p.o., selected agents of the invention reverse the stress-induced hyperthermia.
With Furan-3-carboxylic acid [(1R,3R)-3-(3-chloro-phenylethynyl)-3-hydroxy-cyclohexyl]-amide, a stress-induced hyperthermia of 0.82+/−0.1° C. was reduced to 0.37+/−0.10° C. at 3 mg/kg p.o., to 0.02+/−0.08° C. at 10 mg/kg p.o. and to −0.49+/−0.12° C. at 30 mg/kg p.o. (p<0.01; p<0.001; p<0.001 respectively).

T1 sequence (P41594 21-1180 isoform P41594-2 limits assumed): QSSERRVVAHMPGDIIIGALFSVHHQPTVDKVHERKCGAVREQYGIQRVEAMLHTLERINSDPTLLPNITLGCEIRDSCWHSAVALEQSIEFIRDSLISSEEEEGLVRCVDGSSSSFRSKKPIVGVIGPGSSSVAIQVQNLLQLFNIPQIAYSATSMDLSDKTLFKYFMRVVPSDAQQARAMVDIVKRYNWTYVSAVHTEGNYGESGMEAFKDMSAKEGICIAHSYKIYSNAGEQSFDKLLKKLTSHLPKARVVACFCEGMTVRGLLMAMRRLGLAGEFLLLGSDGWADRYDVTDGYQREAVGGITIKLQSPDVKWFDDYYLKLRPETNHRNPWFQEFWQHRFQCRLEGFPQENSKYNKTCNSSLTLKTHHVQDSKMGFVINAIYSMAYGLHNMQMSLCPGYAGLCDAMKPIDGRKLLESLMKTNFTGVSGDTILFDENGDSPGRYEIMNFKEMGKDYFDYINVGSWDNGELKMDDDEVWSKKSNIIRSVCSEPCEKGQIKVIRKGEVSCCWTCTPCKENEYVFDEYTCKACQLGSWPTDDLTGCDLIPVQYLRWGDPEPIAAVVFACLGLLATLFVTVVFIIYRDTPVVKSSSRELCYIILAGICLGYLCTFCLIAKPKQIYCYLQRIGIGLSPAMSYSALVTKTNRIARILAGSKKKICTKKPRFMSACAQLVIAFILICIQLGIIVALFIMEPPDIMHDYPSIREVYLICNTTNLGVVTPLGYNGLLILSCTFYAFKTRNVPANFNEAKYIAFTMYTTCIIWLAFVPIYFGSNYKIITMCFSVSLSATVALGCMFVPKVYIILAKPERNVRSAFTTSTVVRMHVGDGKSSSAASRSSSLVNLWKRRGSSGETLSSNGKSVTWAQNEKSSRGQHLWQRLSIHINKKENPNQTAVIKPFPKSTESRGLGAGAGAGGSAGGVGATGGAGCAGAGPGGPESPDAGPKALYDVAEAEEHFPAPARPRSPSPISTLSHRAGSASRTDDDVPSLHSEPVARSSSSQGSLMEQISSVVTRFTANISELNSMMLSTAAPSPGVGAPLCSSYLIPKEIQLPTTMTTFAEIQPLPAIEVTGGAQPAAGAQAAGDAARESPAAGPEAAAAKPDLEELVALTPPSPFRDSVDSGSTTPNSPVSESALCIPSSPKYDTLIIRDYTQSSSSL

Row | SMILES | melting point [°C] | further results
1 | Cc1cccc(C#C[C@@]2(O)CCC[C@@H](NC(=O)c3ccoc3)C2)c1 (racemic) [Example 1.19, Furan-3-carboxylic acid ((±)-(1R,3R)-3-hydroxy-3-m-tolylethynyl-cyclohexyl)-amide] | 135 to 138 | –
2 | O=C(N[C@@H]1CCC[C@](O)(C#Cc2cccc(F)c2)C1)c1cnc[nH]1 (racemic) [Example 1.37, 3H-Imidazole-4-carboxylic acid [(±)-(1R,3R)-3-(3-fluoro-phenylethynyl)-3-hydroxy-cyclohexyl]-amide] | 190 to 191 | –
3 | O=C(N[C@@H]1CCC[C@](O)(C#Cc2cccc(Cl)c2)C1)c1ccoc1 [Example 1, Furan-3-carboxylic acid [(1R,3R)-3-(3-chloro-phenylethynyl)-3-hydroxy-cyclohexyl]-amide] | – | IC50 (hmGluR5): 28 nM; stress-induced hyperthermia ([1]; 3 mg/kg p.o., p<0.01): 0.37+/−0.10 °C; stress-induced hyperthermia ([1]; 10 mg/kg p.o., p<0.001): 0.02+/−0.08 °C; stress-induced hyperthermia ([1]; 30 mg/kg p.o., p<0.001): −0.49+/−0.12 °C

Further lines, with some results ahead:

Row | melting point [°C] | SMILES | further results
4 | 139 to 142 | Cc1cccc(C#C[C@@]2(O)CCC[C@@H](NC(=O)c3ccco3)C2)c1 [Example 1.20, Furan-2-carboxylic acid ((1R,3R)-3-hydroxy-3-m-tolylethynyl-cyclohexyl)-amide] | –
5 | 139 to 140 | Cc1cccc(C#C[C@]2(O)CCC[C@H](NC(=O)c3ccco3)C2)c1 [Example 1.21, Furan-2-carboxylic acid ((1S,3S)-3-hydroxy-3-m-tolylethynyl-cyclohexyl)-amide] | –
